Earlier results in patent US6159964A, “Vitronectin receptor antagonists” (SmithKline Beecham Corporation, priority 1999, dated 2000).

Test system: fibrinogen receptor
Details: template of WO 93/08174

N=C(N)c1ccc(NC(=O)c2ccc3c(c2)CN(CCc2ccccc2)C(=O)C(CC(=O)O)N3)cc1 (racemic) [(R,S)-7-[[[4-(aminoiminomethyl)phenyl]amino]carbonyl]-4-(2-phenylethyl)-1,3,4,5-tetrahydro-3-oxo-2H-1,4-benzodiazepine-2-acetic acid]
fibrinogen antagonist activity (in words): potent and selective fibrinogen antagonist
